One series has as its system Bacillus subtillis. Nature of the series: MIC against bacteria, Bacillus subtillis (nutrient broth, turbidity). The series is classed as cell-based. The conditions noted are these: 30° C., 24 hours, read-out: Antimicrobial activity (MIC), Bacteria D: Bacillus subtillis. The procedure: (§1) The minimum inhibitory concentration (hereinafter abbreviated as MIC) against four bacteria (Enterobacter aerogenes, Eschericia coli, Pseudomonas aeruginosa and Bacillus subtillis) and four fungi (Aspergillusniger, Penicillium funiculosum, Gliocladium virens and Trichoderma viride) was measured and used as an indicator of the antimicrobial activity.
(§2) The MIC against bacteria was measured as follows. The test bacteria were cultivated by inoculating a nutrient broth with them and keeping the mixture at 37° C. for 6 hours. On the other hand, the test media were prepared by adding solutions (0.2 ml) of an iodopropargyl derivative in dimethylformamide (DMF) at varying concentrations to the nutrient broth (10 ml). The above bacterial culture (0.1 ml) was added to the test media and the mixtures were cultivated at 30° C. for 24 hours. Then, the presence or absence of microorganism growth was assessed by observing the turbidity of media, by which the MIC was determined.

For another series, the system named is Penicillium funiculosum. The series can be described thus: MIC against fungi, Penicillium funiculosum (PDA medium). The conditions noted are these: Talaromyces funiculosus, 336 h; 28° C., 2 weeks; read-out: Antimicrobial activity (MIC), Fungi F: Penicillium funiculosum. The format is cell-based. As to the method: as §1
(§3) The MIC against fungi was measured as follows. The test fungal spores were suspended in sterilized water supplemented with a wetting agent. On the other hand, test media were prepared by adding solutions (0.3 ml) of an iodopropargyl derivative in dimethylformamide (DMF) at varying concentrations to a potato-dextrose-agar (PDA) medium (15 ml). The above spore suspensions (1 ml) were spread over the test media and the media were cultivated at 28° C. for 2 weeks. The presence or absence of fungal growth on the media was then observed to determine the MIC.

The test system of a further series is Trichoderma viride. The series can be described thus: MIC against fungi, Trichoderma viride (PDA medium). To be noted: 336 h, 28° C., 2 weeks, read-out: Antimicrobial activity (MIC), Fungi H: Trichoderma viride. The format is cell-based. The procedure:
as §1, §3

The subject of the next series is Gliocladium virens. The series can be described thus: MIC against fungi, Gliocladium virens (PDA medium). To be noted: Trichoderma virens, 336 h; 28° C., 2 weeks; read-out: Antimicrobial activity (MIC), Fungi G: Gliocladium virens. The format is cell-based. As to the method: as §1, §3
For a further series, the system named is Aspergillus niger. The series can be described thus: MIC against fungi, Aspergillus niger (PDA medium). The format is cell-based. To be noted: 336 h, 28° C., 2 weeks, read-out: Antimicrobial activity (MIC), Fungi E: Aspergillus niger. The procedure: as §1, §3
For another series, the system named is Enterobacter aerogenes. The series can be described thus: MIC against bacteria, Enterobacter aerogenes (nutrient broth, turbidity). The format is cell-based. To be noted: Klebsiella aerogenes; 30° C., 24 hours; read-out: Antimicrobial activity (MIC), Bacteria A: Enterobacter aerogenes. As to the method:
as §1, §2

Series [1] deals with four bacteria and four fungi. Nature of the series: Antimicrobial activity (MIC) against four bacteria and four fungi, overall. The series is classed as cell-based. The conditions noted are these: from results of Table 1. As to the method:
as §1, §2, §3

The next series deals with Eschericia coli. The series can be described thus: MIC against bacteria, Eschericia coli (nutrient broth, turbidity). The format is cell-based. The conditions noted are these: 30° C., 24 hours; read-out: Antimicrobial activity (MIC), Bacteria B: Eschericia coli. The procedure:
as §1, §2

In the next series the test system is Pseudomonas aeruginosa. The series can be described thus: MIC against bacteria, Pseudomonas aeruginosa (nutrient broth, turbidity). The format is cell-based. To be noted: 30° C., 24 hours, read-out: Antimicrobial activity (MIC), Bacteria C: Pseudomonas aeruginosa. The procedure: as §1, §2
The test system of the next series is mold. To be noted: background art; cited from earlier work.
The test system of another series is human body. The conditions noted are these: background art; cited from earlier work.

These results are taken from patent US6143311A, “Iodopropargyl derivatives and antimicrobial agents comprising them as an active ingredient” (Nagase & Company, Ltd., priority 1997, dated 2000).

Structures are written as SMILES. ≈ marks a conversion by molar mass, not a printed value.

One may read the MIC as the least concentration at which growth counts as inhibited. Take `COc1ccc(OCOCC#CI)cc1` [Derivative III-a, 1-[[(3-Iodo-2-propynyl)oxy]methoxy]-4-methoxybenzene]: the MIC is 10 to 20 µg/mL (≈ 31.4 to 62.9 µM) in the series with Bacillus subtillis; 2 to 4 µg/mL (≈ 6.29 to 12.6 µM) in the series with Penicillium funiculosum; 0.4 to 1 µg/mL (≈ 1.26 to 3.14 µM) with Trichoderma viride; 2 to 4 µg/mL (≈ 6.29 to 12.6 µM) in the series on Gliocladium virens; 0.4 to 1 µg/mL (≈ 1.26 to 3.14 µM) in the series on Aspergillus niger; greater than 1000 µg/mL in the series on Enterobacter aerogenes. Besides, the MIC in the series with Eschericia coli and with Pseudomonas aeruginosa was greater than 1000 µg/mL each time. For the same molecule, the “antimicrobial activity compared with control 1-chloro-4-[[(3-iodo-2-propynyl)oxy]methoxy]benzene” value in [1] is “show an antimicrobial activity similar to that of 1-chloro-4-[[(3-iodo-2-propynyl)oxy]methoxy]benzene”. The “antimicrobial activity compared with the other derivatives” value in series [1] is reported as “superior to the others in the antimicrobial activity”.

For `CCOc1ccc(OCOCC#CI)cc1` [Derivative III-b, 1-Ethoxy-4-[[(3-iodo-2-propynyl)oxy]methoxy]benzene], the MIC in the series with Bacillus subtillis is 100 to 200 µg/mL (≈ 301 to 602 µM); in the series with Penicillium funiculosum it was greater than 20 µg/mL; in the series with Trichoderma viride, 4 to 10 µg/mL (≈ 12 to 30.1 µM); in the series on Gliocladium virens, greater than 20 µg/mL; with Aspergillus niger, 4 to 10 µg/mL (≈ 12 to 30.1 µM); in the series on Enterobacter aerogenes it was greater than 1000 µg/mL. The MIC with Eschericia coli and in the series with Pseudomonas aeruginosa was greater than 1000 µg/mL in each case.

For `COc1ccccc1OCOCC#CI` [Derivative III-c, 1-[[(3-Iodo-2-propynyl)oxy]methoxy]-2-methoxybenzene], the minimum inhibitory concentration (MIC) in the series with Bacillus subtillis is 200 to 400 µg/mL (≈ 629 to 1260 µM); in the series with Penicillium funiculosum, greater than 20 µg/mL; with Trichoderma viride, 10 to 20 µg/mL (≈ 31.4 to 62.9 µM); in the series with Gliocladium virens, greater than 20 µg/mL; with Aspergillus niger it was 10 to 20 µg/mL (≈ 31.4 to 62.9 µM); in the series with Enterobacter aerogenes, greater than 1000 µg/mL. Moreover, the minimal inhibitory concentration (MIC) in the series with Eschericia coli and in the series with Pseudomonas aeruginosa was greater than 1000 µg/mL throughout.

Take `CCOc1ccccc1OCOCC#CI` [Derivative III-d, 1-Ethoxy-2-[[(3-iodo-2-propynyl)oxy]methoxy]benzene]: the MIC in the series with Bacillus subtillis is 20 to 40 µg/mL (≈ 60.2 to 120 µM); in the series with Penicillium funiculosum, 4 to 10 µg/mL (≈ 12 to 30.1 µM); with Trichoderma viride it was 1 to 2 µg/mL (≈ 3.01 to 6.02 µM); in the series on Gliocladium virens it was 4 to 10 µg/mL (≈ 12 to 30.1 µM); with Aspergillus niger it was 1 to 2 µg/mL (≈ 3.01 to 6.02 µM); with Enterobacter aerogenes, greater than 1000 µg/mL. Also, the minimal inhibitory concentration (MIC) in the series with Eschericia coli and in the series with Pseudomonas aeruginosa was greater than 1000 µg/mL each time.

Take `COc1ccc(OC(C)OCC#CI)cc1` (stereo not drawn) [Derivative III-e, 1-[1-[(3-Iodo-2-propynyl)oxy]ethoxy]-4-methoxybenzene]: the MIC in the series with Bacillus subtillis was 20 to 40 µg/mL (≈ 60.2 to 120 µM); with Penicillium funiculosum it was 2 to 4 µg/mL (≈ 6.02 to 12 µM); with Trichoderma viride, 1 to 2 µg/mL (≈ 3.01 to 6.02 µM); with Gliocladium virens it was 4 to 10 µg/mL (≈ 12 to 30.1 µM); in the series with Aspergillus niger it was 0.4 to 1 µg/mL (≈ 1.2 to 3.01 µM); with Enterobacter aerogenes, greater than 1000 µg/mL. The minimum inhibitory concentration (MIC) with Eschericia coli and in the series with Pseudomonas aeruginosa was greater than 1000 µg/mL throughout. For the same molecule, the “antimicrobial activity compared with the other derivatives” value in series [1] is recorded as “superior to the others in the antimicrobial activity”.

With `CCOc1ccc(OC(C)OCC#CI)cc1` (stereo not drawn) [Derivative III-f, 1-Ethoxy-4-[1-[(3-Iodo-2-propynyl)oxy]ethoxy]benzene], the MIC in the series with Bacillus subtillis was 10 to 20 µg/mL (≈ 28.9 to 57.8 µM); in the series with Penicillium funiculosum, 4 to 10 µg/mL (≈ 11.6 to 28.9 µM); with Trichoderma viride, 1 to 2 µg/mL (≈ 2.89 to 5.78 µM); in the series with Gliocladium virens, 4 to 10 µg/mL (≈ 11.6 to 28.9 µM); with Aspergillus niger, 1 to 2 µg/mL (≈ 2.89 to 5.78 µM); in the series on Enterobacter aerogenes, greater than 1000 µg/mL. The MIC with Eschericia coli was 400 to 1000 µg/mL (≈ 1160 to 2890 µM); in the series with Pseudomonas aeruginosa, greater than 1000 µg/mL.

`COc1ccccc1OC(C)OCC#CI` (stereo not drawn) [Derivative III-g, 1-[1-[(3-Iodo-2-propynyl)oxy]ethoxy]-2-methoxybenzene]: the minimal inhibitory concentration (MIC) is 20 to 40 µg/mL (≈ 60.2 to 120 µM) in the series on Bacillus subtillis; 2 to 4 µg/mL (≈ 6.02 to 12 µM) in the series on Penicillium funiculosum; 2 to 4 µg/mL (≈ 6.02 to 12 µM) in the series with Trichoderma viride; 4 to 10 µg/mL (≈ 12 to 30.1 µM) in the series with Gliocladium virens; 1 to 2 µg/mL (≈ 3.01 to 6.02 µM) in the series on Aspergillus niger; greater than 1000 µg/mL with Enterobacter aerogenes. Further, the MIC with Eschericia coli and with Pseudomonas aeruginosa was greater than 1000 µg/mL throughout.

On to `CCOc1ccccc1OC(C)OCC#CI` (stereo not drawn) [Derivative III-h, 1-Ethoxy-2-[1-[(3-iodo-2-propynyl)oxy]ethoxy]benzene], for which the MIC is 20 to 40 µg/mL (≈ 57.8 to 116 µM) with Bacillus subtillis; 2 to 4 µg/mL (≈ 5.78 to 11.6 µM) with Penicillium funiculosum; 2 to 4 µg/mL (≈ 5.78 to 11.6 µM) in the series on Trichoderma viride; 4 to 10 µg/mL (≈ 11.6 to 28.9 µM) in the series on Gliocladium virens; 2 to 4 µg/mL (≈ 5.78 to 11.6 µM) in the series on Aspergillus niger; greater than 1000 µg/mL in the series with Enterobacter aerogenes. The MIC with Eschericia coli and with Pseudomonas aeruginosa was greater than 1000 µg/mL each time.

`N#Cc1ccc(OCOCC#CI)cc1` [Derivative III-i, 1-Cyano-4-[[(3-iodo-2-propynyl)oxy]methoxy]benzene]: the minimal inhibitory concentration (MIC) in the series with Bacillus subtillis is 20 to 40 µg/mL (≈ 63.9 to 128 µM); in the series on Penicillium funiculosum, 0.4 to 1 µg/mL (≈ 1.28 to 3.19 µM); in the series with Trichoderma viride, 0.4 to 1 µg/mL (≈ 1.28 to 3.19 µM); with Gliocladium virens it was 0.4 to 1 µg/mL (≈ 1.28 to 3.19 µM); with Aspergillus niger it was 1 to 2 µg/mL (≈ 3.19 to 6.39 µM); with Enterobacter aerogenes it was greater than 1000 µg/mL. The MIC with Eschericia coli and in the series with Pseudomonas aeruginosa was greater than 1000 µg/mL in each case. Also, the “antimicrobial activity compared with control 1-chloro-4-[[(3-iodo-2-propynyl)oxy]methoxy]benzene” value in series [1] was “show an antimicrobial activity similar to that of 1-chloro-4-[[(3-iodo-2-propynyl)oxy]methoxy]benzene”. The “antimicrobial activity compared with the other derivatives” value in series [1] is “superior to the others in the antimicrobial activity”.

In the case of `Clc1ccc(OCOCC#CI)cc1` [IF-1000, 1-Chloro-4-[[(3-iodo-2-propynyl)oxy]methoxy]benzene, reference compound], the MIC in the series on Bacillus subtillis was 10 to 20 µg/mL (≈ 31 to 62 µM); in the series with Penicillium funiculosum, 0.4 to 1 µg/mL (≈ 1.24 to 3.1 µM); in the series on Trichoderma viride it was 1 to 2 µg/mL (≈ 3.1 to 6.2 µM); in the series with Gliocladium virens, 1 to 2 µg/mL (≈ 3.1 to 6.2 µM); with Aspergillus niger, 0.4 to 1 µg/mL (≈ 1.24 to 3.1 µM); in the series on Enterobacter aerogenes, greater than 1000 µg/mL. The MIC in the series with Eschericia coli was 100 to 200 µg/mL (≈ 310 to 620 µM); in the series on Pseudomonas aeruginosa, greater than 1000 µg/mL. For the same molecule, the “antimicrobial activity against mold” value with mold was “particularly high antimicrobial activity against mold”. In addition, the “toxicity against the human body” value with human body is recorded as “low toxicity against the human body”.
